Test results from US9549560B2, “Pesticidal compositions and related methods” (DOW AGROSCIENCES LLC, priority 2013, dated 2017).

How the values were obtained:
[1] = system: Sweetpotato Whitefly-Crawler (Bemisia tabaci); assay: Insecticidal test for Sweetpotato Whitefly-Crawler (WF) (BEMITA) in foliar spray assay on cotton plants; format: in vivo; details: 216 h, 200 ppm foliar spray, graded after 9 days, Abbott corrected % control, read-out: % Control (or Mortality) rating, WF
Procedure: Cotton plants (Gossypium hirsutum) grown in 3-inch pots, with 1 small (4-5 cm) true leaves, were used as test substrate. The plants were infested with 200-400 whitefly eggs 4-5 days prior to chemical application. Four pots with individual plants were used for each treatment. Test compounds (2 mg) were dissolved in 1 mL of acetone solvent, forming stock solutions of 2000 ppm test compound. The stock solutions were diluted 10× with 0.025% Tween 20 in H2O (diluents) to obtain the solution at 200 ppm test compound. A hand-held aspirator-type sprayer was used for spraying a solution to both sides of cotton leaves until runoff. Reference plants (solvent check) were sprayed with the diluent only containing 10% by volume of acetone solvent. Treated plants were held in a holding room for 9 days at approximately 25° C. and ambient relative humidity (RH) prior to grading. Evaluation was conducted by counting the number of live 3-4 nymph stage per plant under a microscope. Percent control was measured by using Abbott's correction formula (W. S. Abbott, “A Method of Computing the Effectiveness of an Insecticide,” J. Econ. Entomol. 18 (1925), pp. 265-267) as follows. Corrected % Control=100*(X−Y)/X
X=No. of live nymphs on solvent check plants and
Y=No. of live nymphs on treated plants.
(§1) Biological Data for Green Peach Aphid (GPA) (MYZUPE) and Sweetpotato Whitefly-crawler (WF) (BEMITA)” (See Table Section).

[2] = system: Green Peach Aphid (Myzus persicae); assay: Bioassay for Green Peach Aphid (GPA) (MYZUPE), foliar spray on cabbage seedlings; format: in vivo; details: 72 h, 200 ppm foliar spray, graded after three days, Abbott corrected % control, read-out: % Control (or Mortality) rating, GPA
Procedure: Cabbage seedlings grown in 3-inch pots, with 2-3 small (3-5 cm) true leaves, were used as test substrate. The seedlings were infested with 20-50 GPA (wingless adult and nymph stages) one day prior to chemical application. Four pots with individual seedlings were used for each treatment. Test compounds (2 mg) were dissolved in 2 mL of acetone/methanol (1:1) solvent, forming stock solutions of 1000 ppm test compound. The stock solutions were diluted 5× with 0.025% Tween 20 in H2O to obtain the solution at 200 ppm test compound. A hand-held aspirator-type sprayer was used for spraying a solution to both sides of […] leaves until runoff. Reference plants (solvent check) were sprayed with the diluent only containing 20% by volume of acetone/methanol (1:1) solvent. Treated plants were held in a holding room for three days at approximately 25° C. and ambient relative humidity (RH) prior to grading. Evaluation was conducted by counting the number of live aphids per plant under a microscope. Percent control was measured by using Abbott's correction formula (W. S. Abbott, “A Method of Computing the Effectiveness of an Insecticide,” J. Econ. Entomol. 18 (1925), pp. 265-267) as follows. Corrected % Control=100*(X−Y)/X
X=No. of live aphids on solvent check plants and
Y=No. of live aphids on treated plants
as §1

| SMILES | mortality at 200 ppm [1] | mortality at 200 ppm [2] |
| --- | --- | --- |
| CCN(C(=O)CC[S+]([O-])CCCC(F)(F)F)c1cn(-c2ccc[n+]([O-])c2)nc1C (stereo not shown) [Compound P81, 3-(4-(N-Ethyl-3-((4,4,4-trilluorobutyl)sulfinyl)propanamido)-3-methyl-1H-pyrazol-1-yl)pyridine 1-oxide] | 80 to 100% | 80 to 100% |
| C#CCN(C(=O)C(C)CSCCC(F)(F)F)c1cn(-c2ccc[n+]([O-])c2)nc1Cl (stereo not shown) [FA4, 3-(3-Chloro-4-(2-methyl-N-(prop-2-yn-1-yl)-3-((3,3,3trifluoropropyl)thio)propanamido)-1H-pyrazol-1-yl)pyridine 1-oxide] | 80 to 100% | 80 to 100% |
| CCN(C(=O)C(C)[S+]([O-])CC(F)(F)F)c1cn(-c2ccc[n+]([O-])c2)nc1Cl (stereo not shown) [Compound F7, 3-(3-Chloro-4-(N-ethyl-2-((2,2,2-trifluoroethyl)sulfinyl)propanamido)-1H-pyrazol-1-yl)pyridine 1-oxide] | 0 to 80% | 80 to 100% |
| C#CCN(C(=O)CCSCCC(F)(F)F)c1cn(-c2ccc[n+]([O-])c2)nc1Cl [Compound P9, 3-(3-Chloro-4-(N-(prop-2-yn-1-yl)-3-((3,3,3-trifluoropropyl)thio)propanamido)-1H-pyrazol-1-yl)pyridine 1-oxide] | 80 to 100% | 80 to 100% |
| CCN(C(=O)CCSCCCC(F)(F)F)c1cn(-c2cc(F)c[n+]([O-])c2)nc1Cl [Compound P98, 3-(3-Chloro-4-(N-ethyl-3-((4,4,4-trilluorobutyl)thio)propanamido)-1H-pyrazol-1-yl)-5-fluoropyridine 1-oxide] | 80 to 100% | 0 to 80% |
| CCN(C(=O)CCS(=O)(=O)CC1CC1(F)F)c1cn(-c2ccc[n+]([O-])c2)nc1Cl (stereo not shown) [Compound F11] | 80 to 100% | 80 to 100% |
| C#CCNc1cn(-c2ccc[n+]([O-])c2)nc1Cl [CA1, 3-(3-Chloro-4-(prop-2-yn-1-ylamino)-1H-pyrazol-1-yl)pyridine 1-oxide] | 0 to 80% | 0 to 80% |
| CCN(C(=O)CCSCCC(F)(F)F)c1cn(-c2ccc[n+]([O-])c2)nc1C [Compound P18, 3-(4-(N-Ethyl-3-((3,3,3-trilluoropropyl)thio)propanamido)-3-methyl-1H-pyrazol-1-yl)pyridine 1-oxide] | 80 to 100% | 80 to 100% |
| CCN(C(=O)C(C)S(=O)(=O)CC(F)(F)F)c1cn(-c2ccc[n+]([O-])c2)nc1Cl (stereo not shown) [Compound F8, 3-(3-Chloro-4-(N-ethyl-2-((2,2,2-trifluoroethyl)sulfonyl)propanamido)-1H-pyrazol-1-yl)pyridine 1-oxide] | 80 to 100% | 80 to 100% |
| CN(C(=O)CC[S+]([O-])CCCC(F)(F)F)c1cn(-c2ccc[n+]([O-])c2)nc1Cl (stereo not shown) [Compound P63, 3-(3-Chloro-4-(N-methyl-3-((4,4,4-trifluorobutyl)sulfinyl)propanamido)-1H-pyrazol-1-yl)pyridine 1-oxide] | 80 to 100% | 80 to 100% |
| CCN(C(=O)CS(C)(=O)=O)c1cn(-c2ccc[n+]([O-])c2)nc1Cl [FA11, 3-(3-chloro-4-(N-ethyl-2-(methylsulfonyl)acetamido)-1H-pyrazol-1-yl)pyridine 1-oxide] | 0 to 80% | 80 to 100% |
| CNc1cn(-c2ccc[n+]([O-])c2)nc1Cl [CA3, 3-(3-Chloro-4-(methylamino)-1H-pyrazol-1-yl)pyridine 1-oxide] | 0 to 80% | 80 to 100% |
| CCN(C(=O)CC[S+]([O-])CC1CC1(F)F)c1cn(-c2ccc[n+]([O-])c2)nc1C (stereo not shown) [Compound P75, 3-(4-(3-(((2,2-Difluorocyclopropyl)methyl)sulfinyl)-N-ethylpropan-amido)-3-methyl-1H-pyrazol-1-yl)pyridine 1-oxide] | 80 to 100% | 80 to 100% |
| CCN(C(=O)C(C)CSCCC(F)(F)F)c1cn(-c2cc(F)c[n+]([O-])c2)nc1Cl (stereo not shown) [FA2, 3-(3-Chloro-4-(N-ethyl-2-methyl-3-((3,3,3-trifluoropropyl)thio)propanamido)-1H-pyrazol-1-yl)-5-fluoropyridine 1-oxide] | 80 to 100% | 80 to 100% |
| CN(C(=O)CC[S+]([O-])CCC(F)(F)F)c1cn(-c2ccc[n+]([O-])c2)nc1Cl (stereo not shown) [Compound P2, 3-(3-chloro-4-(N-methyl-3-((3,3,3-trifluoropropyl)sulfinyl)propanamido)-1H-pyrazol-1-yl)pyridine 1-oxide] | 80 to 100% | 80 to 100% |
| CCN(C(=O)C(C)CSC)c1cn(-c2ccc[n+]([O-])c2)nc1Cl (stereo not shown) [Compound F10, 3-(3-Chloro-4-(N-ethyl-2-methyl-3-(methylthio)propajamido)-1H-pyrazol-1-yl)pyridine 1-oxide] | 80 to 100% | 80 to 100% |
| CCN(C(=O)CC[S+]([O-])CC1CC1(F)F)c1cn(-c2cc(F)c[n+]([O-])c2)nc1Cl (stereo not shown) [Compound P93, 3-(3-Chloro-4-(3-(((2,2-difluorocyclopropyl)methyl)sulfinyl)-N-ethylpropanamido)-1H-pyrazol-1-yl)-5-fluoropyridine 1-oxide] | 80 to 100% | 80 to 100% |
| CC(C(=O)N(C)c1cn(-c2ccc[n+]([O-])c2)nc1Cl)S(C)(=O)=O (stereo not shown) [FA12, 3-(3-chloro-4-(N-methyl-2-(methylsulfonyl)propanamido)-1H-pyrazol-1-yl)pyridine 1-oxide] | 80 to 100% | 80 to 100% |
| CCN(C(=O)CCSCCCC(F)(F)F)c1cn(-c2ccc[n+]([O-])c2)nc1C [Compound P80, 3-(4-(N-Ethyl-3-((4,4,4-trifluorobutyl)thio)propanamido)-3-methyl-1H-pyrazol-1-yl)pyridine 1-oxide] | 80 to 100% | 80 to 100% |
| CCN(C(=O)CC[S+]([O-])CCC(F)(F)F)c1cn(-c2ccc[n+]([O-])c2)nc1C (stereo not shown) [Compound P19, 3-(4-(N-Ethyl-3-((3,3,3-trilluoropropyl)sulfinyl)propanamido)-3-methyl-1H-pyrazol-1-yl)pyridine 1-oxide] | 80 to 100% | 80 to 100% |
| CN(C(=O)CCSCCC(F)(F)F)c1cn(-c2ccc[n+]([O-])c2)nc1Cl [Compound P1, 3-(3-chloro-4-(N-methyl-3-((3,3,3-trifluoropropyl)thio)propanamido)-1H-pyrazol-1-yl)pyridine 1-oxide] | 80 to 100% | 80 to 100% |
| CCN(C(=O)CC[S+]([O-])CCCC(F)(F)F)c1cn(-c2cc(F)c[n+]([O-])c2)nc1Cl (stereo not shown) [Compound P99, 3-(3-Chloro-4-(N-ethyl-3-((4,4,4-trilluorobutyl)sulfinyl)propanamido)-1H-pyrazol-1-yl)-5-fluoropyridine 1-oxide] | 80 to 100% | 80 to 100% |
| CN(C(=O)CCSCC1CC1(F)F)c1cn(-c2ccc[n+]([O-])c2)nc1Cl (stereo not shown) [Compound P56, 3-(3-Chloro-4-(3-(((2,2-difluorocyclopropyl)methyl)thio)-N-methylpropanamido)-1H-pyrazol-1-yl)pyridine 1-oxide] | 80 to 100% | 80 to 100% |
| CCN(C(=O)CCSCC1CC1(F)F)c1cn(-c2ccc[n+]([O-])c2)nc1Cl (stereo not shown) [Compound P48, 3-(3-Chloro-4-(3-(((2,2-difluorocyclopropyl)methyl)thio)-N-ethylpropanamido)-1H-pyrazol-1-yl)pyridine 1-oxide] | 80 to 100% | 80 to 100% |
| CCN(C(=O)C(C)CSCCC(F)(F)F)c1cn(-c2ccc[n+]([O-])c2)nc1C (stereo not shown) [FA1, 3-(4-(N-Ethyl-2-methyl-3-((3,3,3-trilluoropropyl)thio)propanamido)-3-methyl-1H-pyrazol-1-yl)pyridine 1-oxide] | 80 to 100% | 80 to 100% |
| CCN(C(=O)CC[S+]([O-])CC1CC1(F)F)c1cn(-c2ccc[n+]([O-])c2)nc1Cl (stereo not shown) [Compound P49, 3-(3-Chloro-4-(3-(((2,2-difluorocyclopropyl)methyl)sulfinyl)-N-ethylpropanamido)-1H-pyrazol-1-yl)pyridine 1-oxide] | 80 to 100% | 80 to 100% |
